A short description of this series: Specific surface area of the active substance by the BET method. The class given is physicochemical. The conditions noted are these: peptide salt after lyophilization (or starting material). The procedure:
For all these examples, the inherent viscosities (IV) were measured by the conventional methods of flow time measurement, as described for example in “Pharmacopoée Européenne”, 1997, pages 17-18 (capillary tube method). Unless stated otherwise, these viscosities have been measured in chloroform at a concentration of 0.1% at 25° C. or in hexaisofluoropropanol at a concentration of 0.5% at 30° C. Where measured, the specific surface area of the active substance was determined by the so-called BET method (absorption of a nitrogen monolayer on the active substance), a method well known to a person skilled in the art.
Regarding `CC(C)[C@@H]1NC(=O)[C@H](CCCCN)NC(=O)[C@@H](Cc2c[nH]c3ccccc23)NC(=O)[C@H](Cc2ccc(O)cc2)NC(=O)[C@@H](NC(=O)[C@H](N)Cc2ccc3ccccc3c2)CSSC[C@@H](C(=O)N[C@H](C(N)=O)[C@@H](C)O)NC1=O` [Example 13, lanreotide acetate], the Specific surface area came to 36 m^2/g. The value for `CC(C)[C@@H]1NC(=O)[C@H](CCCCN)NC(=O)[C@@H](Cc2c[nH]c3ccccc23)NC(=O)[C@H](Cc2ccc(O)cc2)NC(=O)[C@@H](NC(=O)[C@H](N)Cc2ccc3ccccc3c2)CSSC[C@@H](C(=O)N[C@H](C(N)=O)[C@@H](C)O)NC1=O` [Example 14, lanreotide acetate] was 43 m^2/g. Take `CC(C)[C@@H]1NC(=O)[C@H](CCCCN)NC(=O)[C@@H](Cc2c[nH]c3ccccc23)NC(=O)[C@H](Cc2ccc(O)cc2)NC(=O)[C@@H](NC(=O)[C@H](N)Cc2ccc3ccccc3c2)CSSC[C@@H](C(=O)N[C@H](C(N)=O)[C@@H](C)O)NC1=O` [modified lanreotide acetate, lanreotide acetate]: the Specific surface area came to 4.4 m^2/g. In the case of “triptorelin acetate [modified triptorelin acetate]” it was 4.7 m^2/g; in that of “triptorelin acetate [unmodified triptorelin acetate, reference compound]”, 0.8 m^2/g.

The values above are taken from patent US6475507B1, “Sustained release compositions and the process for their preparation” (priority 1997, dated 2002).
